Results on 22 compounds are retold here after US9949980B2, “Drugs to prevent HPV infection” (Wisconsin Alumni Research Foundation, priority 2008, dated 2018).

Data set [1] concerns HPV16 pseudoviruses. The data set can be described thus: microbe, parasite or virus in culture. In kind it is cell-based. The conditions noted are these: Human papillomavirus 16, HEK-293T, 48 h. The method, then:
(§1) FIG. 1. High throughout screen (HTS) for identifying inhibitors of HPV infection. Shown is a schematic showing basic steps in the HTS. […] Briefly, HPV16 pseudoviruses containing the SEAP reporter genes are analyzed for their ability to infect as judged by the levels of secreted alkaline phosphatase in the tissue culture supernatant (light grey arrows). Cell viability was assessed in parallel on the same wells (dark grey arrows). In the specific HTS carried out in this study, the compounds were added at 3 uM/1% DMSO final concentration (black arrow) 4 hours prior to infection.
(§2) After incubation at 37° C. for 24 hrs, 35 μL of media was removed. […] Cells were incubated at 37° C. for 48 hrs. 2.5 μL of media was collected for SEAP assay using a PHOSPHA-LIGHT chemiluminescent alkaline phosphatase assay (Applied Biosystems). Cell viability was determined using the CellTiter Glo Luminescent Cell Viability Assay™ (Promega).

Data set [2] can be described thus: in vitro. The conditions noted are these: human, Viability (CelTiter Glow). Here is the method: as §1, §2
Setting [3] is: read-out: Infectivity (SEAP Activity), 3 μM HTS standard concentration, 293T cells, 48 hrs.
Where [4] appears, read: read-out: Infectivity vs. viability, 3 μM HTS standard concentration, ratio infectivity/viability.

SMILES strings stand for the structures. Read-outs that look alike come from different tables or passages of the source.

Take `CSc1nsc(SC)c1NC(=O)OCC1([N+](=O)[O-])COC(C)(C)OC1` [Compound 5893711, (2,2-dimethyl-5-nitro-1,3-dioxan-5-yl)methyl [3,5-bis(methylthio)-4-isothiazolyl]carbamate]: the results for the activity at 3 µM in data set [1] (setting [3]) and in data set [1] (setting [4]) were 63.3% and 58.6%, respectively. In data set [2], the viability at 52 h, 3 μM was 108%.
The like results for `COn1c(=O)c(=O)n(OC)c2ccccc21` [Compound 5896361, 1,4-dimethoxy-1,4-dihydro-2,3-quinoxalinedione] were, in that order, 60.8%, 59.3% and 102%.
The like results for `CC(=O)SCCC(=O)N1CCn2c3c(c4cc(C)ccc42)CCCC31` (stereo not drawn) [Compound 5915049, S-[3-(8-methyl-1,2,3a,4,5,6-hexahydro-3H-pyrazino[3,2,1-jk]carbazol-3-yl)-3-oxopropyl] ethanethioate] were, in that order, 56.8%, 55.9% and 102%.
On the same counts, the results for `CCCC(=O)NC(c1cccc([N+](=O)[O-])c1)c1ccc2cccnc2c1O` (stereo not drawn) [Compound 5926288, N-[(8-hydroxy-7-quinolinyl)(3-nitrophenyl)methyl]butanamide] are 1.52%, 2.4% and 63.3%.
For the compound `COc1ccc(C(NC(=O)Cc2ccccc2)c2ccc3cccnc3c2O)cc1` (stereo not drawn) [Compound 5929288, N-[(8-hydroxy-7-quinolinyl)(4-methoxyphenyl)methyl]-2-phenylacetamide], the activity at 3 µM in data set [1] (setting [3]) came out at 1.44%; in data set [1] (setting [4]) it was 2.41%. Besides, the viability at 52 h, 3 μM in data set [2] is 59.8%.
For the compound `COc1cc(NC(=O)C=Cc2ccc(OC)c(Br)c2)c(OC)cc1Cl` [Compound 5944623, 3-(3-bromo-4-methoxyphenyl)-N-(4-chloro-2,5-dimethoxyphenyl)acrylamide], the activity at 3 µM in data set [1] (setting [3]) is 48.8%; in data set [1] (setting [4]), 49.5%. For the same compound, in data set [2], the viability at 52 h, 3 μM is 98.5%.
The like results for `Cc1ccc2nc3nc(C)cc(C)c3c(N)c2c1` [Compound 5947488, 2,4,7-trimethylbenzo[b]-1,8-naphthyridin-5-amine] were, in that order, 34.6%, 51% and 68%.
Turning to `Cc1ccc2cc(C3CC(c4ccc(Br)cc4)=NN3C(=O)CCC(=O)O)c(=O)[nH]c2c1` (stereo not drawn) [Compound 5976736, 4-[3-(4-bromophenyl)-5-(7-methyl-2-oxo-1,2-dihydro-3-quinolinyl)-4,5-dihydro-1H-pyrazol-1-yl]-4-oxobutanoic acid], the activity at 3 µM came out at 42.2% in data set [1] (setting [3]) and 40.2% in data set [1] (setting [4]). For the same compound, in data set [2], the viability at 52 h, 3 μM was 105%.
On the same counts, the results for `Cc1ccc(CN2CCN(S(C)(=O)=O)CC2)cc1` [Compound 5994189, 1-(4-methylbenzyl)-4-(methylsulfonyl)piperazine] are 39.8%, 36.5% and 109%.
The like results for `Cc1nc2ccccc2c(=O)n1N=Cc1c(O)ccc2ccccc12` [Compound 6001901, 3-{[(2-hydroxy-1-naphthyl)methylene]amino}-2-methyl-4(3H)-quinazolinone] were, in that order, 65.8%, 60% and 110%.
On the same counts, the results for `Cc1cc(OCC(=O)Nc2ccc(N3CCOCC3)c(Cl)c2)cc(C)c1Cl` [Compound 6013775, 2-(4-chloro-3,5-dimethylphenoxy)-N-[3-chloro-4-(4-morpholinyl)phenyl]acetamide] are 58.8%, 56% and 105%.
Regarding `Cc1cc(Cl)ccc1OCC(=O)Nc1ccc(Br)c(NC(=O)c2ccccc2)c1` [Compound 6016344, N-(2-bromo-5-{[(4-chloro-2-methylphenoxy)acetyl]amino}phenyl)benzamide], the activity at 3 µM in data set [1] (setting [3]) came out at 51.4%; in data set [1] (setting [4]) it was 54.4%. The viability at 52 h, 3 μM in data set [2] amounted to 94.6%.
The like results for `CCOc1ccc(C(=O)Nc2ccc3oc(-c4ccccc4F)nc3c2)cc1Cl` [Compound 6021315, 3-chloro-4-ethoxy-N-[2-(2-fluorophenyl)-1,3-benzoxazol-5-yl]benzamide] were, in that order, 47%, 48.8% and 96.3%.
On the same counts, the results for `Cc1ccccc1C(=O)Nc1cccc(NC(=O)c2ccc(-c3ccc(Br)cc3)o2)c1` [Compound 6021688, 5-(4-bromophenyl)-N-{3-[(2-methylbenzoyl)amino]phenyl}-2-furamide] are 40.2%, 38.7% and 104%.
On the same counts, the results for `O=[N+]([O-])c1cc(-n2ncnc2-c2ccc3c(c2)OCO3)ccc1F` [Compound 6033199, 5-(1,3-benzodioxol-5-yl)-1-(4-fluoro-3-nitrophenyl)-1H-1,2,4-triazole] are 50.6%, 47.9% and 106%.
As to `CC(c1ccccc1)c1nnc(NC(=O)Nc2ccc(Cl)cc2)s1` (stereo not drawn) [Compound 6040256, N-(4-chlorophenyl)-N′-[5-(1-phenylethyl)-1,3,4-thiadiazol-2-yl]urea], the activity at 3 µM in data set [1] (setting [3]) came out at 29.6%; in data set [1] (setting [4]), 30.4%. The viability at 52 h, 3 μM in data set [2] came out at 97.5%.
The like results for `O=C(Nc1ccccc1C(=O)N[C@@H](Cc1ccccc1)C(=O)O)c1ccccc1` [Compound 6058136, N-[2-(benzoylamino)benzoyl]phenylalanine] were, in that order, 64.7%, 59.1% and 109%.
On the same counts, the results for `CCCCNC(=O)c1cc2nc(-c3ccc(OCC)cc3)cc(C)n2n1` [Compound 6070486, N-butyl-5-(4-ethoxyphenyl)-7-methylpyrazolo[1,5-a]pyrimidine-2-carboxamide] are 54.6%, 48.3% and 113%.
Regarding `Cc1ccc(OCc2nnc(NC(=O)Nc3ccc(Cl)c(Cl)c3)s2)cc1` [Compound 6070527, N-(3,4-dichlorophenyl)-N′-{5-[(4-methylphenoxy)methyl]-1,3,4-thiadiazol-2-yl}urea], the activity at 3 µM worked out at 41.8% in data set [1] (setting [3]) and 39.8% in data set [1] (setting [4]). In addition, in data set [2], the viability at 52 h, 3 μM came to 105%.
Regarding `O=C(Nc1ccccc1)Nc1nnc(COc2ccc(Cl)cc2)s1` [Compound 6072068, N-{5-[(4-chlorophenoxy)methyl]-1,3,4-thiadiazol-2-yl}-N′-phenylurea], the results for the activity at 3 µM in data set [1] (setting [3]) and in data set [1] (setting [4]) were 54.5% and 48.8%, respectively. The viability at 52 h, 3 μM in data set [2] was determined as 112%.
The like results for `Cc1ccc(-c2cc(N)n(Cc3ccc(Cl)cc3)n2)cc1` [Compound 6077076, 1-(4-chlorobenzyl)-3-(4-methylphenyl)-1H-pyrazol-5-amine] were, in that order, 20.9%, 28.1% and 74.4%.
The like results for `COc1ccccc1CC(N)=NOC(=O)COc1ccc(C)cc1` [Compound 6084167, 2-(2-methoxyphenyl)-N′-{[(4-methylphenoxy)acetyl]oxy}ethanimidamide] were, in that order, 53.8%, 47.2% and 114%.

Broadly, the viability is a read-out of living cells in per cent, often relative to untreated cells.
